For orientation: IC50 means the concentration at which inhibition is half-maximal.

The results in this text go back to patent publication US20230312529A1, “PYRIMIDINE SMALL-MOLECULE COMPOUND AND APPLICATION THEREOF” (WENZHOU MEDICAL UNIVERSITY, priority 2021, published 2023).

What all share (assay): Caliper Mobility Shift kinase inhibition test
Type in all cases: biochemical

Test [1] concerns the target ABL1 (Homo sapiens (Human), UniProt P00519). The note with it: 100 nM; for inhibition at 0.1 µM: read-out: inhibitory rate on ABL1. As to the method:
(§1) The method adopted in the test was Caliper Mobility Shift Assay, which was a detection platform based on the mobility detection technology of microfluidic chip technology. […] Collected data was tested on Caliper to yield that inhibition ratio to kinase activity=(max−conversion)/(max−min)×100. “max” was DMSO control without adding compound, and “min” was low control. When IC50 was determined, each sample was provided with 10 dilutions, each with 2 multiple holes, and repeated for 3 times.

The target in test [2] is PDGFRβ (Homo sapiens (Human), UniProt P09619). The note with it: for inhibition at 0.1 µM / inhibitory rate on PDGFR-β: 100 nM; for inhibition at 0.1 µM: read-out: inhibitory rate on PDGFR-β; for IC50: read-out: IC50 PDGFR-β. As to the method: (§2) The method adopted in the test was Caliper Mobility Shift Assay, which was a detection platform based on the mobility detection technology of microfluidic chip technology. Test steps: 1.25× kinase reaction buffer (62.5 mmol/L HEPES, pH 7.5; 0.001875% Brij-35; 12.5 mmol/L MgCl2; 2.5 mM DTT) and kinase reaction stop solution (100 mmol/L HEPES, pH 7.5; 0.015% Brij-35; 0.2% Coating Reagent #3) were configured. […] Collected data was tested on Caliper to yield that inhibition ratio to kinase activity=(max−conversion)/(max−min)×100. “max” was DMSO control without adding compound, and “min” was low control. When IC50 was determined, each sample was provided with 10 dilutions, each with 2 multiple holes, and repeated for 3 times.
According to the above-mentioned method for measuring kinase inhibitory activity, the inhibitory activity of the active compounds on other multiple kinases was measured to characterize the kinase selectivity of active inhibitors.

Test [3] concerns the target FLT3 (Homo sapiens (Human), UniProt P36888). The conditions noted are these: 100 nM; for inhibition at 0.1 µM: read-out: inhibitory rate on FLT3. As to the method: as §2
Test [4] deals with PDGFRα (Homo sapiens (Human), UniProt P16234). The conditions noted are these: 100 nM. As to the method: as §1
Chain of PDGFRα (P16234 24-1089): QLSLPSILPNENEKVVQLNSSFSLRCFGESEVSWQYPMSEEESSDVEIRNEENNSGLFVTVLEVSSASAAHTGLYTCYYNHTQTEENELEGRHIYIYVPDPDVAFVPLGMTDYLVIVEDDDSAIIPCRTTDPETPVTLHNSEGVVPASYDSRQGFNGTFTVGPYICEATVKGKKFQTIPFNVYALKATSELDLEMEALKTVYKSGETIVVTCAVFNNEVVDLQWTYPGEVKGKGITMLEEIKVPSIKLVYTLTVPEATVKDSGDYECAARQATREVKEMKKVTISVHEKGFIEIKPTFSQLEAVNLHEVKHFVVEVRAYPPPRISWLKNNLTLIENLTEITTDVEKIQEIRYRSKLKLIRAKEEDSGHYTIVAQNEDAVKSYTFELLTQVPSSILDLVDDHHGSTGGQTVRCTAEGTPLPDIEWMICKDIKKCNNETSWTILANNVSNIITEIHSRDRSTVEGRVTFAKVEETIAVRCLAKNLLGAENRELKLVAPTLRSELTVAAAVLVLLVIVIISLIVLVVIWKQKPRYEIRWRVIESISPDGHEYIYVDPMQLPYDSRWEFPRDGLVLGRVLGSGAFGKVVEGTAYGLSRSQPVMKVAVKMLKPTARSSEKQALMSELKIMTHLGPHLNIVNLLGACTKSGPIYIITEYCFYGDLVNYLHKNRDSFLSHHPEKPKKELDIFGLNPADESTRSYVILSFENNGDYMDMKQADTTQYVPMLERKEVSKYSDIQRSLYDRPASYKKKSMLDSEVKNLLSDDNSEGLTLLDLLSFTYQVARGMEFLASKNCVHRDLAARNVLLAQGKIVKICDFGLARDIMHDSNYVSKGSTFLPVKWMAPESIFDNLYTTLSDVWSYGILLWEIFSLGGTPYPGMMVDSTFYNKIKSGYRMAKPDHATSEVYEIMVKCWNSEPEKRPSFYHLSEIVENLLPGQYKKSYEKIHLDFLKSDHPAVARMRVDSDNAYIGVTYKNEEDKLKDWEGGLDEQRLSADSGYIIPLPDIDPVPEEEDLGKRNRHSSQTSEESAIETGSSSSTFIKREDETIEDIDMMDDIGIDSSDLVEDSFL

Chain of ABL1 (P00519 whole entry): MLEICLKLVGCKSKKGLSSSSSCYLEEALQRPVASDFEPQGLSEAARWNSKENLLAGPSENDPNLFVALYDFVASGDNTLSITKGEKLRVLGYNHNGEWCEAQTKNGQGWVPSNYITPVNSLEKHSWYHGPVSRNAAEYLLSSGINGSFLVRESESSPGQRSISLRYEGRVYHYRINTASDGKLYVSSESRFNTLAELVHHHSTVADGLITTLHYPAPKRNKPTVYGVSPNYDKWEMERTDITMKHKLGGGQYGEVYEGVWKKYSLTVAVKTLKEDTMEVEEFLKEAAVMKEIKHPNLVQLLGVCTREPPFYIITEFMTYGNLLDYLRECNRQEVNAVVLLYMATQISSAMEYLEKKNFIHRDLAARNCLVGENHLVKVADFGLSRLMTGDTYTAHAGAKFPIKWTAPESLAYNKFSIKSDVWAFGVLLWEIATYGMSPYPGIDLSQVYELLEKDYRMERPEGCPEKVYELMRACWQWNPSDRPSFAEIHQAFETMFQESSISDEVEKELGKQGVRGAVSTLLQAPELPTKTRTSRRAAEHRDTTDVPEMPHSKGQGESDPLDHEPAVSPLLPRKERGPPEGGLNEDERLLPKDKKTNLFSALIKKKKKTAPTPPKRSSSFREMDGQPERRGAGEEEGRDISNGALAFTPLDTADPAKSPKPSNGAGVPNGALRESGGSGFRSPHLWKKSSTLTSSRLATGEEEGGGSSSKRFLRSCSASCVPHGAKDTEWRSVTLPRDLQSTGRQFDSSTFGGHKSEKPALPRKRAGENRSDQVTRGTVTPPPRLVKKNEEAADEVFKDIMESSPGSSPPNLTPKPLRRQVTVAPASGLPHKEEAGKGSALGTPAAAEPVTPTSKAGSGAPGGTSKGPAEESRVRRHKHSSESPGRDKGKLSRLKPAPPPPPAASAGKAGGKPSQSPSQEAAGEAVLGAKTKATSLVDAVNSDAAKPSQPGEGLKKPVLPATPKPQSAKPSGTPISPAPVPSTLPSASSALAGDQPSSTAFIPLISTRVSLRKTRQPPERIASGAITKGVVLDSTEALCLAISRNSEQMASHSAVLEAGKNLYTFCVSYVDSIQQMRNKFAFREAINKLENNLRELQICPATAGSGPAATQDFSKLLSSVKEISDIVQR
Chain of PDGFRβ (P09619 33-1106): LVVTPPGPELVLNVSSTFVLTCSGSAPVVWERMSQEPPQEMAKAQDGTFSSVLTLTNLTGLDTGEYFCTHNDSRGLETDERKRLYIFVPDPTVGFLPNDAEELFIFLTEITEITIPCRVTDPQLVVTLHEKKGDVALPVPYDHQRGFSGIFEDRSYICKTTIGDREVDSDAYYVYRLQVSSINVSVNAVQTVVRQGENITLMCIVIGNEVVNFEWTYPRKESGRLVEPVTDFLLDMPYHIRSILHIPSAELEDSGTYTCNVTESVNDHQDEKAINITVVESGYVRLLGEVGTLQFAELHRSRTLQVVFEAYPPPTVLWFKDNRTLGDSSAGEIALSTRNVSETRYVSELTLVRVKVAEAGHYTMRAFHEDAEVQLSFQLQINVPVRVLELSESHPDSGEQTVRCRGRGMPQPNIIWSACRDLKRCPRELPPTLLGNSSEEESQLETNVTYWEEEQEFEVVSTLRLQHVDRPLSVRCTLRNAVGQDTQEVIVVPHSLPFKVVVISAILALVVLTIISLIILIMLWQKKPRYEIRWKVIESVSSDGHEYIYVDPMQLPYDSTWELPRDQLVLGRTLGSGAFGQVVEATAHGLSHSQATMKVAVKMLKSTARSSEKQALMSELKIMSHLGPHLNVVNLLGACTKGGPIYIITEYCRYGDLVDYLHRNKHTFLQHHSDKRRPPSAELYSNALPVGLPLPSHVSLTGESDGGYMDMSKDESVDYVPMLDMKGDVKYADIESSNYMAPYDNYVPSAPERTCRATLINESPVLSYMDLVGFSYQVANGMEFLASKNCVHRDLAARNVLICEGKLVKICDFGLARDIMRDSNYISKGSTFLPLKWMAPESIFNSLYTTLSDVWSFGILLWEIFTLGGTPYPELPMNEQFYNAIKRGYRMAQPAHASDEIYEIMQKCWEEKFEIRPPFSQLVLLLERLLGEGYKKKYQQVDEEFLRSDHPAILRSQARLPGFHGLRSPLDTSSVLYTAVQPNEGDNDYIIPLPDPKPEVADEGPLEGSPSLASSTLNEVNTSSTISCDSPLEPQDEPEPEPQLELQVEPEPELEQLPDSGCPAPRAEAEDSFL
Chain of FLT3 (P36888 27-993): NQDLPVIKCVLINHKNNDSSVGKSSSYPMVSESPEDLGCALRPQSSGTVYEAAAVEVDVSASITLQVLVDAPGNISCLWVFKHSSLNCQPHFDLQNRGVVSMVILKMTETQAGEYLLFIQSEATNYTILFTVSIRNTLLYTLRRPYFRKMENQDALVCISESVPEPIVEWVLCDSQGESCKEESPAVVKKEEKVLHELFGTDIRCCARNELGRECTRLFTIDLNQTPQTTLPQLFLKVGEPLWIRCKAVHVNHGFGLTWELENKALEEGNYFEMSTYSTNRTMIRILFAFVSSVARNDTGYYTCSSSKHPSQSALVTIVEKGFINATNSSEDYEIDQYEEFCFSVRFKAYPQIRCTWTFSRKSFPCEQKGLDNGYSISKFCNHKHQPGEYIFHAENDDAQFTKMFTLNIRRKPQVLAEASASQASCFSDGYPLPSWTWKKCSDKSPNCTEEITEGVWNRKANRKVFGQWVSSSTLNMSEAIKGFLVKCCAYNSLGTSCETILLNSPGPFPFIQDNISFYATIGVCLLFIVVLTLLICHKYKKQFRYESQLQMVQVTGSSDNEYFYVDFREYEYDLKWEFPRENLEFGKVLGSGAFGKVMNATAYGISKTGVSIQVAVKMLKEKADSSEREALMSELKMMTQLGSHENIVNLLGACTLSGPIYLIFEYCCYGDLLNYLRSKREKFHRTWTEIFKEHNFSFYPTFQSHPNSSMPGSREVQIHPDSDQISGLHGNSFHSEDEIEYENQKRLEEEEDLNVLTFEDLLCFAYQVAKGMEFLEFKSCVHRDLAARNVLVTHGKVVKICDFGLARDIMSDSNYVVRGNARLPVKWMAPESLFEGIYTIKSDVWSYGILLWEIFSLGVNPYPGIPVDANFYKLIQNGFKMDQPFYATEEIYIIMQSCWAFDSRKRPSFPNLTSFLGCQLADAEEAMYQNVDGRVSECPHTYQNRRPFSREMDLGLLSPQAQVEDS

Consider `CN1CCN(c2ccc(Nc3ncc(F)c(Nc4ccc5cn[nH]c5c4)n3)cc2)CC1` [Compound 3a, 5-fluoro-N^4-(1H-indazol-6-yl)-N^2-(4-(4-methylpiperazine-1-yl)phenyl)pyrimidine-2,4-diamine], for which the inhibition at 0.1 µM in test [1] turned out to be 90.4%; in test [2], 94.4%; in test [3], 87.5%.
The like results for `CN1CCN(c2ccc(Nc3ncc(Cl)c(Nc4ccc5cn[nH]c5c4)n3)cc2)CC1` [Compound 3b, 5-chloro-N^4-(1H-indazol-6-yl)-N^2-(4-(4-methylpiperazine-1-yl)phenyl)pyrimidine-2,4-diamine] were, in that order, 95.1%, 95.8% and 90.2%.
The like results for `CN1CCN(c2ccc(Nc3ncc(C(F)(F)F)c(Nc4ccc5cn[nH]c5c4)n3)cc2)CC1` [Compound 3c, N^4-(1H-indazol-6-yl)-N^2-(4-(4-methylpiperazine-1-yl)phenyl)-5-(trifluoromethyl)pyrimidine-2,4-diamine] were, in that order, 84.2%, 81% and 78.6%.
The like results for `Cc1cnc(Nc2ccc(N3CCN(C)CC3)cc2)nc1Nc1ccc2cn[nH]c2c1` [Compound 3d, N^4-(1H-indazol-6-yl)-5-methyl-N^2-(4-(4-methylpiperazine-1-yl)phenyl)pyrimidine-2,4-diamine] were, in that order, 95.2%, 99.6% and 90.5%.
As to `COc1cnc(Nc2ccc(N3CCN(C)CC3)cc2)nc1Nc1ccc2cn[nH]c2c1` [Compound 3e, N^4-(1H-indazol-6-yl)-5-methoxy-N^2-(4-(4-methylpiperazine-1-yl)phenyl)pyrimidine-2,4-diamine], the inhibition at 0.1 µM in test [1] is 54.3%; in test [2], 55%; in test [3], 51.2%.
The like results for `CCOC(=O)c1cnc(Nc2ccc(N3CCN(C)CC3)cc2)nc1Nc1ccc2cn[nH]c2c1` [Compound 3f, Ethyl-4-((1H-indazol-6-yl)amino)-2-((4-(4-methylpiperazine-1-yl)phenyl)amino)pyrimidine-5-carboxylate] were, in that order, 4.3%, 3.5% and 34.8%.
The like results for `CN1CCN(c2ccc(Nc3nc(Nc4ccc5cn[nH]c5c4)cc(C(F)(F)F)n3)cc2)CC1` [Compound 3g, N^4-(1H-indazol-6-yl)-N^2-(4-(4-methylpiperazine-1-yl)phenyl)-6-(trifluoromethyl)pyrimidine-2,4-diamine] were, in that order, 6.9%, 7.2% and 14.6%.
As to `Cc1cc(Nc2ccc3cn[nH]c3c2)nc(Nc2ccc(N3CCN(C)CC3)cc2)n1` [Compound 3h], the “inhibitory rate on ABL1” value in test [1] is reported as 5.9%. In test [2], the “inhibitory rate on PDGFR-β” value was determined as 21.2%. Moreover, the “inhibitory rate on FLT3” value in test [3] amounted to 13.8%.
Regarding `Cc1cc2c(Nc3ccc4cn[nH]c4c3)nc(Nc3ccc(N4CCN(C)CC4)cc3)nc2s1` [Compound 3i], the “inhibitory rate on PDGFR-α” value in test [4] is recorded as 6.6%. Further, the “inhibitory rate on ABL1” value in test [1] is on record as 23.6%. Further, in test [2], the “inhibitory rate on PDGFR-β” value turned out to be 30.7%. The “inhibitory rate on FLT3” value in test [3] worked out at 42.6%.
The like results for `Cc1cnc(Nc2ccc(N3CCN(C)CC3)cc2)nc1Nc1ccc2[nH]ccc2c1` [Compound 5a] were, in that order, 57.3%, 58.9%, 78.6% and 60.3%.
Take `Cc1cnc(Nc2ccc(N3CCN(C)CC3)cc2)nc1Nc1cccc2[nH]ccc12` [Compound 5b]: the “inhibitory rate on ABL1” value in test [1] is given as 78.8%. In addition, the “inhibitory rate on PDGFR-β” value in test [2] stood at 90.3%. In addition, the “inhibitory rate on FLT3” value in test [3] was 60.9%.
Consider `Cc1cnc(Nc2ccc(N3CCN(C)CC3)cc2)nc1Nc1ccc2c(cnn2C)c1` [Compound 5c, 5-methyl-N^4-(1-methyl-1H-indazol-5-yl)-N^2-(4-(4-methylpiperazine-1-yl)phenyl)pyrimidine-2,4-diamine], for which the inhibition at 0.1 µM in test [1] was determined as 58.9%; in test [2] it was 79.2%; in test [3], 65.4%.
Turning to `Cc1cnc(Nc2ccc(N3CCN(C)CC3)cc2)nc1Nc1ccc2[nH]ncc2c1` [Compound 5d], the “inhibitory rate on ABL1” value in test [1] is reported as 80.9%. For the same molecule, the “inhibitory rate on PDGFR-β” value in test [2] is reported as 84.1%. In addition, the “inhibitory rate on FLT3” value in test [3] came to 80.4%.
As for `Cc1cnc(Nc2ccc(N3CCN(C)CC3)cc2)nc1Nc1ccc2nccnc2c1` [Compound 5e, 5-methyl-N^2-(4-(4-methylpiperazine-1-yl)phenyl)-N^4-(benzopyrazine-6-yl)-pyrimidine-2,4-diamine], the “inhibitory rate on ABL1” value in test [1] is listed as 65.5%. The inhibition at 0.1 µM in test [2] came to 74.1%. In test [3], the “inhibitory rate on FLT3” value was 69.8%.
Turning to `Cc1cnc(Nc2ccc(N3CCN(C)CC3)cc2)nc1Nc1ccc2nccnc2c1` [Compound 5f, 5-methyl-N^2-(4-(4-methylpiperazine-1-yl)phenyl)-N^4-(quinoxaline-7-yl)-pyrimidine-2,4-diamine], the “inhibitory rate on ABL1” value in test [1] was determined as 90.2%. Also, the “inhibitory rate on PDGFR-β” value in test [2] is 91.0%. Moreover, in test [3], the “inhibitory rate on FLT3” value is recorded as 90.5%.
Consider `Cc1cnc(Nc2ccc(N3CCN(C)CC3)cc2)nc1Nc1ccc2c(c1)CCCC2` [Compound 5g, 5-methyl-N^2-(4-(4-methylpiperazine-1-yl)phenyl)-N^4-(5,6,7,8-tetrahydronaphthalene-2-yl)-pyrimidine-2,4-diamine], for which the inhibition at 0.1 µM in test [1] is 89.2%; in test [2], 90.4%; in test [3], 85.7%.
Turning to `Cc1cnc(Nc2ccc(N3CCN(C)CC3)cc2)nc1Nc1ccc2c(c1)CCC2` [Compound 5h, N^4-(2,3-dihydro-1H-indene-5-yl)-5-methyl-N^2-(4-(4-methylpiperazine-1-yl)phenyl)pyrimidine-2,4-diamine], the inhibition at 0.1 µM in test [1] was 80.2%; in test [2], 88.9%; in test [3], 87.1%.
Consider `Cc1cnc(Nc2ccc(N3CCN(C)CC3)cc2)nc1Nc1ccc2c(C)n[nH]c2c1` [Compound 5i, 5-methyl-N^4-(3-methyl-1H-indazol-6-yl)-N^2-(4-(4-methylpiperazine-1-yl)phenyl)pyrimidine-2,4-diamine], for which the values for the inhibition at 0.1 µM in test [1], in test [2] and in test [3] were 85.2%, 98% and 93.4%, respectively. In test [2], the 50% inhibitory concentration (IC50) was 7.9 nM.
Turning to `Cc1cnc(Nc2ccc(N3CCN(C)CC3)cc2)nc1Nc1ccc2cn(CCNC(=O)OC(C)(C)C)nc2c1` [Compound 5j, Tert-butyl (2-(6-((5-methyl-2-((4-(4-methylpiperazine-1-yl)phenyl)amino)-pyrimidine-4-yl)amino)-2H-indazol-2-yl)ethyl) carbamate], the “inhibitory rate on ABL1” value in test [1] is recorded as 71.6%. In addition, in test [2], the “inhibitory rate on PDGFR-β” value came out at 71.1%. In test [3], the “inhibitory rate on FLT3” value was found to be 74.3%.
On to `Cc1cnc(Nc2ccc(N3CCOCC3)cc2)nc1Nc1ccc2cn[nH]c2c1` [Compound 6a, N^4-(1H-indazol-6-yl)-5-methyl-N^2-(4-morphinophenyl) pyrimidine-2,4-diamine], for which, in test [1], the “inhibitory rate on ABL1” value came out at 98.2%. Further, in test [2], the “inhibitory rate on PDGFR-β” value is listed as 93.8% and the IC50 was determined as 4.2 nM. The “inhibitory rate on FLT3” value in test [3] stood at 87.2%.
With `Cc1cnc(Nc2ccc(N3CCNCC3)cc2)nc1Nc1ccc2cn[nH]c2c1` [Compound 6b, N^4-(1H-indazol-6-yl)-5-methyl-N^2-(4-(piperazine-1-yl)phenyl) py rimidine-2,4-diamine], the inhibition at 0.1 µM in test [1] stood at 91.2%; in test [2], 68.7%; in test [3] it was 87.3%. In addition, the IC50 in test [2] amounted to 68.7 nM.
In the case of `COc1cc(N2CCC(N3CCN(C)CC3)CC2)ccc1Nc1ncc(C)c(Nc2ccc3cn[nH]c3c2)n1` [Compound 6k, N^4-(1H-indazol-6-yl)-N^2-(2-methoxy-4-(4-(4-methylpiperazine-1-yl)piperidine-1-yl)phenyl)-5-methylpyrimidine-2,4-diamine], the inhibition at 0.1 µM stood at 47.5% in test [1], 76.4% in test [2] and 58.4% in test [3].
The like results for `Cc1cnc(Nc2ccc(C(=O)N3CCN(C)CC3)cc2)nc1Nc1ccc2cn[nH]c2c1` [Compound 6m, (4-((4-((1H-indazol-6-yl)amino)-5-methylpyrimidine-2-yl)amino)phenyl) (4-methylpiperazine-1-yl)methanone] were, in that order, 81%, 78.4% and 85.6%.
